According to patent US9844536B2, “3-(1H-imidazo[4,5-C]pyridin-2-yl)-1H-pyrazolo[3,4-C]pyridine and therapeutic uses thereof” (Samumed, LLC, priority 2014, dated 2017):

How the values were obtained:
Format in all cases: cell-based
[1] = tested on: LL29 cells; experiment: Inhibition of the fibrotic process (αSMA staining) in TGF-β1 treated primary human fibroblasts from IPF patients; conditions: Fibroblast, 96 h, TGF-β1 20 ng/mL, 4 days, dose-response 10 μM to 1.87 nM, read-out: Inhibition of fibrosis EC50
How it was run: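 LL29 IPF lung fibroblasts in 1% FBS were stimulated with TGF-β1 (20 ng/mL) and treated 4 days at 37 °C with compound (11 points, 10 μM–1.87 nM, 0.1% DMSO). The % αSMA-positive cells, imaged after excluding SYTOX-positive dead cells, was normalized to TGF-β1/DMSO wells. EC50 came from nonlinear regression over triplicates.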

[2] = tested on: primary human mesenchymal stem cells (hMSCs); experiment: Chondrogenesis induction screen in primary human mesenchymal stem cells (nodules, Rhodamine B/Nile Red); conditions: 144 h, 6 days; for EC (100% TGF-beta3 activity): concentration required to induce chondrogenesis equivalent to TGF-β3 (10 ng/mL), read-out: Conc (nM) of 100% TGF-β3 activity; for Emax: relative to TGF-β3 (10 ng/mL) positive control, read-out: Max. Activity as % TGF-β3 activity
Procedure: The above synthesized compounds were screened using primary human mesenchymal stem cells (hMSCs) to determine their ability to induce chondrogenesis (process by which cartilage is developed).
Primary human mesenchymal stem cells (hMSCs) were purchased from Lonza (Walkersville, Md.) and expanded in Mesenchymal Stem Cell Growth Media (Lonza). Cells between passage 3 and 6 were used for the experiments.
Each compound was dissolved in DMSO as a 10 mM stock and used to prepare compound source plates. Serial dilution (1:3, 6-point dose-response curves from 2700 nM to 10 nM) and compound transfer was performed using the ECHO 550 (Labcyte, Sunnyvale, Calif.) into 96-well clear bottom assay plates (Greiner Bio-One) with appropriate DMSO backfill for a final DMSO concentration of 0.03%. hMSCs were plated at 20,000 cells/well in 250 μL/well Incomplete Chondrogenic Induction Medium (Lonza; DMEM, dexamethasone, ascorbate, insulin-transferrin-selenium [ITS supplement], gentamycin-amphotericin [GA-1000], sodium pyruvate, proline and L-glutamine). TGF-β3 (10 ng/mL) was used as a positive control for differentiation while negative control wells were treated with 75 nL DMSO for normalization and calculating EC50 values. Cells were incubated at 37° C. and 5% CO2 for 6 days. To image chondrogenic nodules, the cells were fixed using 4% formaldehyde (Electron Microscopy Sciences), and stained with 2 μg/mL Rhodamine B (Sigma-Aldrich) and 20 μM Nile Red (Sigma-Aldrich) [Johnson K., et. al, A Stem Cell-Based Approach to Cartilage Repair, Science, (2012), 336(6082), 717-721]. The nodules imaged (4 images per well at 4× magnification) by excitation at 531 nm and emission at 625 nm and quantified using the CellInsight CX5 (Thermo Scientific). Number of nodules in each well was normalized to the average of 3 DMSO treated wells on the same plate using Excel (Microsoft Inc.). The normalized averages (fold change over DMSO) of 3 replicate wells for each compound concentration were calculated. Due to solubility limitations of some of the compounds, curve fitting was incomplete leading to inaccurate EC50 determinations.
Using TGF-03 as a positive control, the concentration of test compounds required to induce equivalent levels of chondrogenesis is reported. In addition, the maximum activity of each compound and the respective dose that each compound reached maximum chondrogenesis activity is reported.

[3] = tested on: Wnt pathway (Sp5-Luc reporter, SW480 cells); experiment: Sp5-Luc reporter gene screening assay for Wnt activity in SW480 colon carcinoma cells; conditions: Homo sapiens
How it was run: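 IC50 values come from variable-slope four-parameter fits of luciferase signal normalized to DMSO wells. Stable Sp5-Luc reporter SW480 colon carcinoma cells were exposed to compounds in a 3-fold dilution series (source plates from 10 mM stock) for forty-two hours at 37 °C.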

[4] = tested on: ARPE-19 cells; experiment: Transdifferentiation of ARPE-19 cells into eye neuronal cells [photoreceptors], PAX6 staining; conditions: Homo sapiens, fixed at 40 hours, PAX6 antibody staining, normalized to DMSO
Procedure: The above synthesized compounds were screened using ARPE-19 cells [a spontaneously arising retinal pigment epithelia (RPE) cell line] to determine their ability to transdifferentiate ARPE-19 into eye neuronal cells [photoreceptors].
ARPE-19 cells are cultured in standard culture medium containing Dulbecco's Modified Eagle's Medium and Ham's F12 Nutrient Mixture (DMEM/F12) mix (1:1)+GlutaMax with 1% penicillin-Streptomycin and 10% FBS (Fetal Bovine Serum). Cells are incubated at 37° C. with 5% CO2. Cells are trypsinized and plated onto 384-well pre-spotted plate at a density of 3000 cells/well in 50 uL of media. Plating media: DMEM/F12 (1:1)+3% charcoal filtered-FBS+GlutaMax+1% pen/Strep. Cells are incubated at 37° C. with 5% CO2. At 40 hours, cells were fixed for 15 min with 10% Buffered Formalin. Cells were then washed 3 times with PBS for 5 min each, permeablize using 0.3% Triton X-100 in 1×PBS for 30 min, block for 1 hr with 2% BSA in 1×PBS with 0.1% Triton X-100. The primary antibody (1:100 PAX6 Santa Cruz Biotech; sc-81649) was diluted and 10 μL/well was added to the cells. The cells were incubated overnight at 4° C. […] Readings were normalized to DMSO only treated cells, and normalized activities were utilized for EC50 calculations using the dose-response log (activator) vs. response-variable slope (four parameters) nonlinear regression feature available in GraphPad Prism 5.0 or 6.0.

Row | IC50 [3] [nM] | Structure (SMILES) | EC50 [1] [nM] | EC (100% TGF-beta3 activity) [2] [nM] | Emax [2] [%] | EC50 [4] [nM]
1 | 61.6 | FC1(F)CCN(Cc2cncc(-c3cc4c(-c5nc6c(N7CCCCC7)nccc6[nH]5)n[nH]c4cn3)c2)C1 [Compound 181, 5-(5-((3,3-Difluoropyrrolidin-1-yl)methyl)pyridin-3-yl)-3-(4-(piperidin-1-yl)-1H-imidazo[4,5-c]pyridin-2-yl)-1H-pyrazolo[3,4-c]pyridine] | 140 | 68.1 | – | –
2 | 9.9 | Cc1ccncc1-c1cc2c(-c3nc4c(-c5cc(F)cc(CNS(C)(=O)=O)c5)nccc4[nH]3)n[nH]c2cn1 [Compound 421, N-(3-Fluoro-5-(2-(5-(4-methylpyridin-3-yl)-1H-pyrazolo[3,4-c]pyridin-3-yl)-1H-imidazo[4,5-c]pyridin-4-yl)benzyl)methanesulfonamide] | > 10000 | 122 | 10 | –
3 | 15 | CC(C)Nc1cncc(-c2cc3c(-c4nc5c(-c6ccoc6)nccc5[nH]4)n[nH]c3cn2)c1 [Compound 298, 5-(3-(4-(Furan-3-yl)-1H-imidazo[4,5-c]pyridin-2-yl)-1H-pyrazolo[3,4-c]pyridin-5-yl)-N-isopropylpyridin-3-amine] | 65 | 219 | 300 | –
4 | 2.1 | Cc1ccc(-c2nccc3[nH]c(-c4n[nH]c5cnc(-c6cncc(N)c6)cc45)nc23)s1 [Compound 367, 5-(3-(4-(5-Methylthiophen-2-yl)-1H-imidazo[4,5-c]pyridin-2-yl)-1H-pyrazolo[3,4-c]pyridin-5-yl)pyridin-3-amine] | ≤ 9 | 259 | 10 | –
5 | 10 | COc1cncc(-c2cc3c(-c4nc5c(-c6cccc(F)c6)nccc5[nH]4)n[nH]c3cn2)c1 [Compound 948, 3-(4-(3-Fluorophenyl)-1H-imidazo[4,5-c]pyridin-2-yl)-5-(5-methoxypyridin-3-yl)-1H-pyrazolo[3,4-c]pyridine] | ≤ 9 | 174 | 900 | –
6 | 16.4 | O=C(Nc1cncc(-c2cc3c(-c4nc5c(-c6cccs6)nccc5[nH]4)n[nH]c3cn2)c1)C1CC1 [Compound 331, N-(5-(3-(4-(Thiophen-2-yl)-1H-imidazo[4,5-c]pyridin-2-yl)-1H-pyrazolo[3,4-c]pyridin-5-yl)pyridin-3-yl)cyclopropanecarboxamide] | ≤ 9 | 68.4 | – | –
7 | 99 | CN(C)CCOc1cncc(-c2cc3c(-c4nc5c(-c6cccc(F)c6)nccc5[nH]4)n[nH]c3cn2)c1 [Compound 947, 2-((5-(3-(4-(3-Fluorophenyl)-1H-imidazo[4,5-c]pyridin-2-yl)-1H-pyrazolo [3,4-c]pyridin-5-yl)pyridin-3-yl)oxy)-N,N-dimethylethan-1-amine] | 484 | – | – | 35
8 | 12.6 | CC(C)(C)C(=O)Nc1cncc(-c2cc3c(-c4nc5c(-c6ccc(F)s6)nccc5[nH]4)n[nH]c3cn2)c1 [Compound 346, N-(5-(3-(4-(5-Fluorothiophen-2-yl)-1H-imidazo[4,5-c]pyridin-2-yl)-1H-pyrazolo[3,4-c]pyridin-5-yl)pyridin-3-yl)pivalamide] | ≤ 9 | 40.9 | – | –
9 | 10.7 | CCCC(=O)Nc1cncc(-c2cc3c(-c4nc5c(-c6cccc(F)c6)nccc5[nH]4)n[nH]c3cn2)c1 [Compound 17, N-(5-(3-(4-(3-Fluorophenyl)-1H-imidazo[4,5-c]pyridin-2-yl)-1H-pyrazolo[3,4-c]pyridin-5-yl)pyridin-3-yl)butyramide] | ≤ 9 | 67.8 | 10 | –
10 | 5.5 | CC(=O)c1ccc(-c2nccc3[nH]c(-c4n[nH]c5cnc(-c6cccnc6)cc45)nc23)s1 [Compound 394, 1-(5-(2-(5-(Pyridin-3-yl)-1H-pyrazolo[3,4-c]pyridin-3-yl)-1H-imidazo[4,5-c]pyridin-4-yl)thiophen-2-yl)ethan-1-one] | 14 | 142 | 10 | –
11 | 10 | Cn1cc(-c2cc3c(-c4nc5c(-c6cccc(F)c6)nccc5[nH]4)n[nH]c3cn2)cn1 [Compound 940, 3-(4-(3-Fluorophenyl)-1H-imidazo[4,5-c]pyridin-2-yl)-5-(1-methyl-1H-pyrazol-4-yl)-1H-pyrazolo[3,4-c]pyridine] | ≤ 9 | 110 | 100 | –
12 | 46 | NC1CN(c2cncc(-c3cc4c(-c5nc6c(-c7cccc(F)c7)nccc6[nH]5)n[nH]c4cn3)n2)C1 [Compound 942, 1-(6-(3-(4-(3-Fluorophenyl)-1H-imidazo[4,5-c]pyridin-2-yl)-1H-pyrazolo[3,4-c]pyridin-5-yl)pyrazin-2-yl)azetidin-3-amine] | 303 | – | – | 5
13 | 16.6 | Nc1cncc(-c2cc3c(-c4nc5c(-c6ccccc6F)nccc5[nH]4)n[nH]c3cn2)c1 [Compound 55, 5-(3-(4-(2-Fluorophenyl)-1H-imidazo[4,5-c]pyridin-2-yl)-1H-pyrazolo[3,4-c]pyridin-5-yl)pyridin-3-amine] | ≤ 9 | 145 | – | –
14 | 11.3 | CCNCc1cncc(-c2cc3c(-c4nc5c(-c6ccsc6)nccc5[nH]4)n[nH]c3cn2)c1 [Compound 266, N-((5-(3-(4-(Thiophen-3-yl)-1H-imidazo[4,5-c]pyridin-2-yl)-1H-pyrazolo[3,4-c]pyridin-5-yl)pyridin-3-yl)methyl)ethanamine] | ≤ 9 | 67.7 | 30 | –
